Experimental findings from ChEMBL document CHEMBL1146668, “1,2-Benzothiazine 1,1-dioxide alpha-ketoamide analogues as potent calpain I inhibitors” (Bioorg Med Chem Lett, 2004) are described below.

A word on the IC50: it is the concentration needed to halve the response being measured.

For assay [1], the target named is T1, Calpain-1 catalytic subunit (Homo sapiens, UniProt P07384).
T1 sequence (P07384 whole entry): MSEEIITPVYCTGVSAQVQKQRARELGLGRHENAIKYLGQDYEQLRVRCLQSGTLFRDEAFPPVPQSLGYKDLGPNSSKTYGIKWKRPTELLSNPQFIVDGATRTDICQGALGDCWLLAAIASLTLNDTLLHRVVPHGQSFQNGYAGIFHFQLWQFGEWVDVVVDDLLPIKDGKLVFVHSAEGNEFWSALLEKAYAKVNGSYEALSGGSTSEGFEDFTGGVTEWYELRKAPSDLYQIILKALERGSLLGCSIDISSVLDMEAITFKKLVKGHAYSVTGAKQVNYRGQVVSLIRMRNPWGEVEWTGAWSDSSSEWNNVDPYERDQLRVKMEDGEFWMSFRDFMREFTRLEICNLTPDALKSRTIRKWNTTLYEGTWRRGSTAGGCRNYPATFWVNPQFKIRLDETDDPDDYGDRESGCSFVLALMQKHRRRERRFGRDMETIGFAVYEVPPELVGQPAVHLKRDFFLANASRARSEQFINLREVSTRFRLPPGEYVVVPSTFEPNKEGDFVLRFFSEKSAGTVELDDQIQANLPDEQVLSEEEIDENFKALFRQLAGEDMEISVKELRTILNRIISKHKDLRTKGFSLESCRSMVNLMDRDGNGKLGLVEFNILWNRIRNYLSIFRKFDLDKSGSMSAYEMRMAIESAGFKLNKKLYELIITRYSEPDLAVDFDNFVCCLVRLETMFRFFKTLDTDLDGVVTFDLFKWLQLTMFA
The assay can be described thus: In vitro inhibitory activity against recombinant human calpain 1.

Assay [2] deals with T1, Calpain-1 catalytic subunit. The assay can be described thus: In vitro inhibitory activity against human calpain 1 in Molt-4 cells (intact human T-cell leukemia cell line). The class given is cell-based.
The target in assay [3] is T2, Cathepsin B (Homo sapiens, UniProt P07858). The assay can be described thus: Inhibitory activity against cathepsin B; In active.
The target of another assay is Chymotrypsinogen B (Homo sapiens, UniProt P17538). The assay is described as follows: Inhibitory activity against chymotrypsinogen; Range 1-10 uM.
Chain of Chymotrypsinogen B (P17538 34-164 limits assumed, other chains not shown): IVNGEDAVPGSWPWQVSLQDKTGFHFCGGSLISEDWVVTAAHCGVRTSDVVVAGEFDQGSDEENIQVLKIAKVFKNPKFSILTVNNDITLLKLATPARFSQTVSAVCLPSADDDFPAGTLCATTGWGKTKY
Chain of Chymotrypsinogen B (P17538 167-263 limits assumed, other chains not shown): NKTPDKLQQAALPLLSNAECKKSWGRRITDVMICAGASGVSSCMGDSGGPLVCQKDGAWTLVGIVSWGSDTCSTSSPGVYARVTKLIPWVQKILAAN
For assay [4], the target named is T1, Calpain-1 catalytic subunit. The assay can be described thus: In vitro inhibitory activity against human calpain I; Not determined.
Assay [5] concerns the target T2, Cathepsin B. The assay can be described thus: Inhibitory activity against cathepsin B.

With `CCN1C(C(=O)N[C@@H](Cc2ccccc2)C(=O)C(=O)NCc2ccccn2)Cc2cc3c(cc2S1(=O)=O)OCCO3` (some centres undefined), the IC50 in assay [1] worked out at 170 nM.

For the compound `CCN1C(C(=O)N[C@@H](Cc2ccccc2)C(=O)C(=O)NCCCN2CCOCC2)Cc2cc3c(cc2S1(=O)=O)OCCO3` (some centres undefined), the IC50 in assay [1] is 195 nM.

For `CCN1C(C(=O)N[C@@H](Cc2ccccc2)C(=O)C(=O)NCCOC)Cc2cc3c(cc2S1(=O)=O)OCCO3` (some centres undefined), the IC50 in assay [1] came to 200 nM.

`CCN1C(C(=O)N[C@@H](Cc2ccccc2)C(=O)C(=O)NCCNS(=O)(=O)c2ccccc2)Cc2cc3c(cc2S1(=O)=O)OCCO3` (some centres undefined): the IC50 in assay [2] is 5000 nM; at Cathepsin B [3] it was “Not Active”; on Chymotrypsinogen B, more than 10000 nM.

In assay [2], `CCN1C(C(=O)N[C@@H](Cc2ccccc2)C(=O)C(=O)NCCCNS(=O)(=O)c2ccccc2)Cc2cc3c(cc2S1(=O)=O)OCCO3` (some centres undefined) came in with an IC50 of 2700 nM.

Compound `CCN1C(C(=O)N[C@H](C=O)Cc2ccccc2)Cc2cc(Cl)ccc2S1(=O)=O` (some centres undefined) returned an IC50 in assay [4] of 5 nM.

On to `CCN1C(C(=O)N[C@@H](Cc2ccccc2)C(=O)C(=O)NCCNS(=O)(=O)c2ccc(-c3ccccn3)s2)Cc2cc3c(cc2S1(=O)=O)OCCO3` (some centres undefined), for which the IC50 is 1300 nM in assay [2], “Not Active” on Cathepsin B [5] and more than 10000 nM on Chymotrypsinogen B.

For the compound `CCN1C(C(=O)N[C@@H](Cc2ccccc2)C(=O)C(=O)NC(C)C)Cc2cc3c(cc2S1(=O)=O)OCCO3` (some centres undefined), the IC50 in assay [1] stood at 205 nM.

For the compound `CCN1C(C(=O)N[C@@H](Cc2ccccc2)C(=O)C(=O)NCCCn2ccnc2)Cc2cc3c(cc2S1(=O)=O)OCCO3` (some centres undefined), the IC50 in assay [1] worked out at 5000 nM.

Consider `O=C[C@H](Cc1ccccc1)NC(=O)C1Cc2ccccc2S(=O)(=O)N1` (some centres undefined), for which the IC50 in assay [1] is 7 nM.

Turning to `CCNC(=O)C(=O)[C@H](Cc1ccccc1)NC(=O)C1Cc2cc(Cl)ccc2S(=O)(=O)N1CC` (some centres undefined), in assay [1], the IC50 stood at 1000 nM.

`CCN1C(C(=O)N[C@@H](Cc2ccccc2)C(=O)C(=O)NCc2ccncc2)Cc2cc3c(cc2S1(=O)=O)OCCO3` (some centres undefined): in assay [1], the IC50 came out at 240 nM.

On to `CCCCNC(=O)C(=O)[C@H](CC(C)C)NC(=O)C1Cc2cc3c(cc2S(=O)(=O)N1CC)OCCO3` (single isomer, unassigned; form 2), for which the IC50 in assay [1] worked out at 1000 nM.

As for `CCCCCNC(=O)C(=O)[C@H](Cc1ccccc1)NC(=O)C1Cc2cc3c(cc2S(=O)(=O)N1CC)OCCO3` (some centres undefined), the IC50 in assay [1] was 150 nM.

The compound `CCN1C(C(=O)N[C@@H](Cc2ccccc2)C(=O)C(=O)NCCNS(=O)(=O)c2ccc([N+](=O)[O-])cc2)Cc2cc3c(cc2S1(=O)=O)OCCO3` (some centres undefined) yielded an IC50 in assay [2] of 4200 nM.

`C=CCNC(=O)C(=O)[C@H](Cc1ccccc1)NC(=O)C1Cc2cc3c(cc2S(=O)(=O)N1CC)OCCO3` (some centres undefined): the 50% inhibitory concentration (IC50) in assay [1] came to 200 nM.

Turning to `CCN1C(C(=O)N[C@@H](Cc2ccccc2)C(=O)C(=O)NCCc2ccccc2)Cc2cc3c(cc2S1(=O)=O)OCCO3` (some centres undefined), the IC50 in assay [1] worked out at 63 nM.

Take `CCN1C(C(=O)N[C@@H](Cc2ccccc2)C(=O)C(=O)NCCNS(=O)(=O)c2ccc(F)cc2)Cc2cc3c(cc2S1(=O)=O)OCCO3` (some centres undefined): the midpoint of inhibition in assay [2], the IC50, lay at 2000 nM.

For `CCN1C(C(=O)N[C@@H](Cc2ccccc2)C(=O)C(=O)NCCCNS(=O)(=O)c2ccc(F)cc2)Cc2cc3c(cc2S1(=O)=O)OCCO3` (some centres undefined), the midpoint of inhibition in assay [2], the IC50, lay at 2400 nM.

With `CCN1C(C(=O)N[C@@H](Cc2ccccc2)C(=O)C(=O)OC)Cc2cc3c(cc2S1(=O)=O)OCCO3` (some centres undefined), the IC50 in assay [1] was found to be 1000 nM.

Turning to `CCN1C(C(=O)N[C@@H](Cc2ccccc2)C(=O)C(=O)NCCCNS(=O)(=O)c2ccc([N+](=O)[O-])cc2)Cc2cc3c(cc2S1(=O)=O)OCCO3` (some centres undefined), in assay [2], the IC50 was 3600 nM.

With `CCN1C(C(=O)N[C@@H](Cc2ccccc2)C(=O)C(=O)NCCCN2CCCC2=O)Cc2cc3c(cc2S1(=O)=O)OCCO3` (some centres undefined), the IC50 in assay [1] was found to be 500 nM.

Regarding `CCCCNC(=O)C(=O)[C@H](CC(C)C)NC(=O)C1Cc2cc3c(cc2S(=O)(=O)N1CC)OCCO3` (single isomer, unassigned; form 1), the IC50 in assay [1] was 500 nM.

Regarding `CCCCNC(=O)C(=O)[C@H](Cc1ccccc1)NC(=O)C1Cc2cc3c(cc2S(=O)(=O)N1CC)OCCO3` (stereo in doubt), the IC50 result against Cathepsin B [3] was “Not Active”; against Chymotrypsinogen B, more than 10000 nM.
